# Assay results published in publication PMC12305662, “Fragment-Based Development of Small Molecule Inhibitors Targeting Mycobacterium tuberculosis Cholesterol Metabolism” (Journal of Medicinal Chemistry, 2025).
# Biological target: T1, CYP1A (Homo sapiens, UniProt P05177)
# T1 construct: from tissue; host or cells: human liver microsomes
# T1 sequence (P05177 2-516 limits assumed): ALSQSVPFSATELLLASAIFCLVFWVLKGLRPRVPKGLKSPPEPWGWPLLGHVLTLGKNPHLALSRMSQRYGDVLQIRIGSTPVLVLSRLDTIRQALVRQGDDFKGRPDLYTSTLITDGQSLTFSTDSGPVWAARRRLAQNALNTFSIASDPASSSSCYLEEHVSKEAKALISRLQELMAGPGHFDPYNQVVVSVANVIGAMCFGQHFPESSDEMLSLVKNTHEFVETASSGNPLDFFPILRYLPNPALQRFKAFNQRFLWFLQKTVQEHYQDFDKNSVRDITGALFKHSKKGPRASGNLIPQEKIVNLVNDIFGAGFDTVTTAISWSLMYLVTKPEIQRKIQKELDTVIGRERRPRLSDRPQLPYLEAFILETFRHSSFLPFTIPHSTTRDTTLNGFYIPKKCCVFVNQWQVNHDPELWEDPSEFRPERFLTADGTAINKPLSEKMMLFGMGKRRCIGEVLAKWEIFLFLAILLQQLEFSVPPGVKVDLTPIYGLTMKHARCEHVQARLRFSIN
# Test: Inhibition of human liver microsomal P450s
# Type: in vitro ADME
# From the text: Table S8. Inhibition of human liver microsomal P450s. Inhibition constants (IC 50 values, µM) of
# following substrates: CYP1A-ethoxyresorufin, CYP2C19- mephenytoin, CYP2C9-tolbutamide, CYP2D6-
# dextromethorphan, CYP3A4-midazolam/testosterone.
smiles,measurement,value
"COc1ccc(CNc2ccc(Cc3ccncc3)cc2)cc1 [5m, N-(4-Methoxybenzyl)-4-(pyridin-4-ylmethyl)aniline]",IC50,820 nM
